target: RIPK2 enzyme (Homo sapiens (Human), UniProt O43353); test: RIPK2 inhibition assay, TR-FRET LanthaScreen Tracer 199 screening assay; assay type: binding; conditions: 5 nM RIPK2 enzyme, Tracer 199 at 50 nM, Eu-anti-His Antibody at 2 nM, 1 hour incubation
Experimental: All data was collected using a standard TR-FRET screening assay: LanthaScreen Tracer 199 at 50 nM, Eu-anti-His Antibody at 2 nM, 5 nM RIPK2 enzyme, and 1× Kinase Reaction Buffer. There was a 1 hour incubation prior to read. TR-FRET signal of the interaction (340Ex/665Em/615Em) was read at room temperature with standard setting. Background was subtracted of wells containing no enzyme. Percent inhibition was based on uninhibited controls log (inhibitor) vs. response. Variable slope equation was used with no constraints: Log Y=Bottom+(Top−Bottom)/(1+10^((Log IC50−X)*Hill Slope)).
The compound numbers correspond to the compound numbers above.

RIPK2 enzyme, sequence (O43353 whole entry): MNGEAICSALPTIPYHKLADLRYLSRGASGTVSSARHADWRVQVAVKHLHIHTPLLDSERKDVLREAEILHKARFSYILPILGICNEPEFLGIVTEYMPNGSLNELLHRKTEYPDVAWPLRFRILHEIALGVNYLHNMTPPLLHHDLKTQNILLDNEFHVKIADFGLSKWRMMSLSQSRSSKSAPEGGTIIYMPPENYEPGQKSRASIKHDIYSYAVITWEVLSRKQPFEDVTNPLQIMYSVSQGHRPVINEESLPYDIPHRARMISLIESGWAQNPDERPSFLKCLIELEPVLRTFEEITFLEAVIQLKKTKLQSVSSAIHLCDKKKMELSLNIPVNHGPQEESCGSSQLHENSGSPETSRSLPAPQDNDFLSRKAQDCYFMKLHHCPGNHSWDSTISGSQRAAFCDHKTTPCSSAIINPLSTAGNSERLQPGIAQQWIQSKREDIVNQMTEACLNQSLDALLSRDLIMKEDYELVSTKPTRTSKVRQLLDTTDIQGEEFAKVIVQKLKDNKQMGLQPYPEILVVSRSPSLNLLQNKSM

`C[C@@H]1[C@@H](c2cc3c(Nc4ccc5scnc5c4F)ccnc3s2)CCCN1C` [Example 58, N-(2-((2R,3S)-1,2-dimethylpiperidin-3-yl)thieno[2,3-b]pyridin-4-yl)-4-fluorobenzo[d]thiazol-5-amine] and `C[C@H]1[C@H](c2cc3c(Nc4ccc5scnc5c4F)ccnc3s2)CCCN1C` [Example 59, N-(2-((2S,3R)-1,2-dimethylpiperidin-3-yl)thieno[2,3-b]pyridin-4-yl)-4-fluorobenzo[d]thiazol-5-amine] cannot be ordered by IC50: ≤ 10 nM for the first, ≤ 10 nM for the second.

`CCN1CCC(c2cc3c(Nc4ccc5scnc5c4)ccnc3s2)C12CCOCC2` (stereo not drawn) [Example 48, N-(2-(1-ethyl-8-oxa-1-azaspiro[4.5]decan-4-yl)thieno[2,3-b]pyridin-4-yl)benzo[d]thiazol-5-amine] and `CN1CCC(c2cc3c(Nc4ccc5scnc5c4)ccnc3s2)C12CCOC2` (stereo not drawn) [Example 43, N-(2-(1-methyl-7-oxa-1-azaspiro[4.4]nonan-4-yl)thieno[2,3-b]pyridin-4-yl)benzo[d]thiazol-5-amine] cannot be ordered by IC50: ≥ 50 nM for the first, 20 to 50 nM for the second.

`CC(=O)N1CCCC=C(c2cc3c(Nc4ccc5scnc5c4)ccnc3s2)C1` [Example 114, 1-(6-(4-(benzo[d]thiazol-5-ylamino)thieno[2,3-b]pyridin-2-yl)-2,3,4,7-tetrahydro-1H-azepin-1-yl)ethan-1-one] and `CN1CCCC=C(c2cc3c(Nc4ccc5scnc5c4)ccnc3s2)C1` [Example 113, N-(2-(1-methyl-2,5,6,7-tetrahydro-1H-azepin-3-yl)thieno[2,3-b]pyridin-4-yl)benzo[d]thiazol-5-amine] cannot be ordered by IC50: ≤ 10 nM for the first, ≤ 10 nM for the second.

`C[C@H]1NCCC=C1c1cc2c(Nc3c(F)cc4scnc4c3F)ccnc2s1` [Example 66a, (R)-4,6-difluoro-N-(2-(2-methyl-1,2,5,6-tetrahydropyridin-3-yl)thieno[2,3-b]pyridin-4-yl)benzo[d]thiazol-5-amine] and `CCN1CCC=C(c2cc3c(Nc4c(F)cc5scnc5c4F)ccnc3s2)[C@H]1C` [Example 72a, (R)—N-(2-(1-ethyl-2-methyl-1,2,5,6-tetrahydropyridin-3-yl)thieno[2,3-b]-pyridin-4-yl)-4,6-difluorobenzo[d]thiazol-5-amine] cannot be ordered by IC50: ≤ 10 nM for the first, ≤ 10 nM for the second.

First: CCN1CCC[C@H](c2cc3c(Nc4cc5ncsc5cc4F)ccnc3s2)[C@@H]1C [Example 54b, N-(2-(1-ethyl-2-methylpiperidin-3-yl)thieno[2,3-b]pyridin-4-yl)-6-fluorobenzo[d]thiazol-5-amine]
Second: CCN1CCC[C@H](c2cc3c(Nc4ccc5scnc5c4F)ccnc3s2)[C@@H]1C [Example 65, N-(2-((2S,3S)-1-ethyl-2-methylpiperidin-3-yl)thieno[2,3-b]pyridin-4-yl)-4-fluorobenzo[d]thiazol-5-amine]
The IC50 of the first is higher: 20 to 50 nM for the first, ≤ 10 nM for the second.

`CN1CCC(c2cc3c(Nc4cc5ncsc5cc4F)ccnc3s2)C12CCOCC2` (stereo not drawn) [Example 85, 6-fluoro-N-(2-(1-methyl-8-oxa-1-azaspiro[4.5]decan-4-yl)thieno[2,3-b]pyridin-4-yl)benzo[d]thiazol-5-amine] and `CN1CCC(c2cc3c(Nc4c(F)cc5scnc5c4F)ccnc3s2)C12CCOCC2` (stereo not drawn) [Example 103, 4,6-difluoro-N-(2-(1-methyl-8-oxa-1-azaspiro[4.5]decan-4-yl)thieno[2,3-b]pyridin-4-yl)benzo[d]thiazol-5-amine] cannot be ordered by IC50: ≥ 50 nM for the first, 20 to 50 nM for the second.

First: c1cc(Nc2ccc3scnc3c2)c2cc(C3CCNC34CCOC4)sc2n1 (stereo not drawn) [Example 42, N-(2-(7-oxa-1-azaspiro[4.4]nonan-4-yl)thieno[2,3-b]pyridin-4-yl)benzo[d]thiazol-5-amine]
Second: Fc1cc2scnc2cc1Nc1ccnc2sc(C3CCNC34CCOC4)cc12 (stereo not drawn) [Example 81, N-(2-(7-oxa-1-azaspiro[4.4]nonan-4-yl)thieno[2,3-b]pyridin-4-yl)-6-fluorobenzo[d]thiazol-5-amine]
The IC50 of the first is lower: 10 to 20 nM for the first, ≥ 50 nM for the second.

`CC1C(c2cc3c(Nc4ccc5scnc5c4)ccnc3s2)CCCN1C` (stereo not drawn) [Example 4, N-(2-(1,2-dimethylpiperidin-3-yl)thieno[2,3-b]pyridin-4-yl)benzo[d]thiazol-5-amine] and `CC1C(c2cc3c(Nc4ccc5scnc5c4)ccnc3s2)CCCCN1C` (stereo not drawn) [Example 116a, N-(2-(1,2-dimethylazepan-3-yl)thieno[2,3-b]pyridin-4-yl)benzo[d]thiazol-5-amine] cannot be ordered by IC50: ≤ 10 nM for the first, ≤ 10 nM for the second.

`CCN1CCC(c2cc3c(Nc4ccc5scnc5c4F)ccnc3s2)C1(C)C` (stereo not drawn) [Example 91, N-(2-(1-ethyl-2,2-dimethylpyrrolidin-3-yl)thieno[2,3-b]pyridin-4-yl)-4-fluorobenzo[d]thiazol-5-amine] and `C[C@H]1NCCC[C@@H]1c1cc2c(Nc3ccc4scnc4c3F)ccnc2s1` [Example 56a, 4-fluoro-N-(2-((2R,3S)-2-methyl-piperidin-3-yl)thieno[2,3-b]pyridin-4-yl)benzo[d]thiazol-5-amine] cannot be ordered by IC50: 10 to 20 nM for the first, ≤ 10 nM for the second.

`CC1C(c2cc3c(Nc4ccc5scnc5c4F)c(F)cnc3s2)CCCN1C` (single isomer, unassigned) [Example 125c, N-(2-(1,2-dimethylpiperidin-3-yl)-5-fluorothieno[2,3-b]pyridin-4-yl)-4-fluorobenzo[d]thiazol-5-amine] and `CC1NCCCC1c1cc2c(Nc3ccc4scnc4c3F)c(F)cnc2s1` (single isomer, unassigned) [Example 124c, 4-fluoro-N-(5-fluoro-2-(2-methylpiperidin-3-yl)thieno[2,3-b]pyridin-4-yl)benzo[d]thiazol-5-amine] cannot be ordered by IC50: ≤ 10 nM for the first, ≤ 10 nM for the second.

First: c1cc(Nc2ccc3scnc3c2)c2cc(C3CCCN4CCCCC34)sc2n1 (stereo not drawn) [Example 21, N-(2-(octahydro-2H-quinolizin-1-yl)thieno[2,3-b]pyridin-4-yl)benzo[d]thiazol-5-amine]
Second: CC(=O)N1CCCC(c2cc3c(Nc4ccc5scnc5c4)ccnc3s2)CC1 (stereo not drawn) [Example 111, 1-(4-(4-(benzo[d]thiazol-5-ylamino)thieno[2,3-b]pyridin-2-yl)azepan-1-yl)ethan-1-one]
The IC50 of the first is higher: 20 to 50 nM for the first, 10 to 20 nM for the second. The second is the more potent here.

`CC1NCCC1c1cc2c(Nc3ccc4scnc4c3)ccnc2s1` (stereo not drawn) [Example 26, N-(2-(2-methylpyrrolidin-3-yl)thieno[2,3-b]pyridin-4-yl)benzo[d]thiazol-5-amine] and `CC1NCCC1c1cc2c(Nc3cc4ncsc4cc3F)ccnc2s1` (stereo not drawn) [Example 75, 6-fluoro-N-(2-(2-methylpyrrolidin-3-yl)thieno[2,3-b]pyridin-4-yl)benzo[d]thiazol-5-amine] cannot be ordered by IC50: ≤ 10 nM for the first, ≤ 10 nM for the second.

`CC1C(c2cc3c(Nc4ccc5scnc5c4)c(F)cnc3s2)CCCN1C` (single isomer, unassigned) [Example 120b, N-(2-(1,2-dimethylpiperidin-3-yl)-5-fluorothieno[2,3-b]pyridin-4-yl)benzo[d]-thiazol-5-amine] and `CC1NCCCC1c1cc2c(Nc3ccc4scnc4c3)c(F)cnc2s1` (single isomer, unassigned) [Example 119c, N-(5-fluoro-2-(2-methylpiperidin-3-yl)thieno[2,3-b]pyridin-4-yl)benzo[d]thiazol-5-amine] cannot be ordered by IC50: ≤ 10 nM for the first, ≤ 10 nM for the second.

`C1=C(c2cc3c(Nc4ccc5scnc5c4)ccnc3s2)CNCCC1` [Example 112, N-(2-(2,5,6,7-tetrahydro-1H-azepin-3-yl)thieno[2,3-b]pyridin-4-yl)benzo[d]thiazol-5-amine] and `CN1CC=C(c2cc3c(Nc4ccc5scnc5c4)ccnc3s2)C1(C)C` [Example 34, N-(2-(1,2,2-trimethyl-2,5-dihydro-1H-pyrrol-3-yl)thieno[2,3-b]pyridin-4-yl)benzo[d]thiazol-5-amine] cannot be ordered by IC50: ≤ 10 nM for the first, ≤ 10 nM for the second.

`C[C@H]1NCCC[C@H]1c1cc2c(Nc3c(F)cc4scnc4c3F)ccnc2s1` [Example 67b, 4,6-difluoro-N-(2-((2R,3R)-2-methylpiperidin-3-yl)thieno[2,3-b]pyridin-4-yl)benzo[d]thiazol-5-amine] and `CC1(C)NCCC1c1cc2c(Nc3c(F)cc4scnc4c3F)ccnc2s1` (stereo not drawn) [Example 96, N-(2-(2,2-dimethylpyrrolidin-3-yl)thieno[2,3-b]pyridin-4-yl)-4,6-difluorobenzo[d]thiazol-5-amine] cannot be ordered by IC50: ≤ 10 nM for the first, ≤ 10 nM for the second.

`CC1NCCCC1c1cc2c(Nc3cc4ncsc4cc3F)c(F)cnc2s1` (single isomer, unassigned) [Example 122b, 6-fluoro-N-(5-fluoro-2-(2-methylpiperidin-3-yl)thieno[2,3-b]pyridin-4-yl) benzo[d]thiazol-5-amine] and `CC1C(c2cc3c(Nc4ccc5scnc5c4)ccnc3s2)CCCN1CC(F)F` (stereo not drawn) [Example 15, N-(2-(1-(2,2-difluoroethyl)-2-methylpiperidin-3-yl)thieno[2,3-b]pyridin-4-yl)benzo[d]thiazol-5-amine] fall in the same range of IC50: 20 to 50 nM for the first, 20 to 50 nM for the second.

`CC1C(c2cc3c(Nc4ccc5scnc5c4)ccnc3s2)CCCN1CCCN` (stereo not drawn) [Example 18, N-(2-(1-(3-aminopropyl)-2-methylpiperidin-3-yl)thieno[2,3-b]pyridin-4-yl)benzo[d]thiazol-5-amine] and `CC1C(c2cc3c(Nc4ccc5scnc5c4)ccnc3s2)CCCN1CCO` (stereo not drawn) [Example 20, 2-(3-(4-(benzo[d]thiazol-5-ylamino)thieno[2,3-b]pyridin-2-yl)-2-methylpiperidin-1-yl)ethan-1-ol] cannot be ordered by IC50: ≤ 10 nM for the first, ≤ 10 nM for the second.

`COCCN1CCCC(c2cc3c(Nc4ccc5scnc5c4)ccnc3s2)C1C` (stereo not drawn) [Example 13, N-(2-(1-(2-methoxyethyl)-2-methylpiperidin-3-yl)thieno[2,3-b]pyridin-4-yl)benzo[d]thiazol-5-amine] and `COCCN1CCC=C(c2cc3c(Nc4ccc5scnc5c4)ccnc3s2)C1C` (stereo not drawn) [Example 12, N-(2-(1-(2-methoxyethyl)-2-methyl-1,2,5,6-tetrahydropyridin-3-yl)thieno[2,3-b]pyridin-4-yl)benzo[d]thiazol-5-amine] cannot be ordered by IC50: ≤ 10 nM for the first, ≤ 10 nM for the second.
